Earlier results as cited in publication PMC10224173 (Viruses, 2023).

Biological target: ZIKV NS2B-NS3 protease (Zika virus, UniProt A0A024B7W1)
Settings: Table 2; active site inhibitor; ref [43]

Chain of ZIKV NS2B-NS3 protease (A0A024B7W1 1503-1680): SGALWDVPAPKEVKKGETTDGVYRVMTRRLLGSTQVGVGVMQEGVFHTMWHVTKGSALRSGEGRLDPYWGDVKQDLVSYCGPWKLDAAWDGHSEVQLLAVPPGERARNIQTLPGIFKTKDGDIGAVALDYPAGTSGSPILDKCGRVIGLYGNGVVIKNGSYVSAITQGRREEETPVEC
Chain of ZIKV NS2B-NS3 protease (A0A024B7W1 1419-1472): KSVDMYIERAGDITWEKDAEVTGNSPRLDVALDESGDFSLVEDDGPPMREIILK

## CC(C)C[C@H]1C(=O)N2CCC[C@H]2[C@]2(O)O[C@](NC(=O)[C@@H]3C=C4c5cccc6[nH]c(Br)c(c56)C[C@H]4N(C)C3)(C(C)C)C(=O)N12 [Bromocriptine]
  IC50: 21.6 µM
